Assay results as given in publication PMC11602153, “Differential redox sensitivity of tRNA dihydrouridylation” (Nucleic Acids Research, 2024).

Assays:
DusB = molecular target: T1, DusB (Escherichia coli, UniProt P0ABT5); experiment: flavin bound to the purified protein; format: binding; details: non-covalent; flavin named FMN elsewhere in the paper
T1 construct: expression construct, tags and host not described
T1 sequence (P0ABT5 1-321): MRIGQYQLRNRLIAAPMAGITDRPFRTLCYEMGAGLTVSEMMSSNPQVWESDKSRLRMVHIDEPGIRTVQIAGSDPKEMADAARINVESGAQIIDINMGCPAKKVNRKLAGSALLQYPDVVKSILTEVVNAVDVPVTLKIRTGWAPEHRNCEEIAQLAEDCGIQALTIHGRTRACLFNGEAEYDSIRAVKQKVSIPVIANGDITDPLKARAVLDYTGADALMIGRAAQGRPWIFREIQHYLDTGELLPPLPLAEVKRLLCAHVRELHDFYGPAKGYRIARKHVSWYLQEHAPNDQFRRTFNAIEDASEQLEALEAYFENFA

DusC = molecular target: T2, DusC (Escherichia coli, UniProt P33371); experiment: flavin bound to the purified protein; format: binding; details: non-covalent; flavin named FMN elsewhere in the paper
T2 construct: expression construct, tags and host not described
T2 sequence (P33371 1-315): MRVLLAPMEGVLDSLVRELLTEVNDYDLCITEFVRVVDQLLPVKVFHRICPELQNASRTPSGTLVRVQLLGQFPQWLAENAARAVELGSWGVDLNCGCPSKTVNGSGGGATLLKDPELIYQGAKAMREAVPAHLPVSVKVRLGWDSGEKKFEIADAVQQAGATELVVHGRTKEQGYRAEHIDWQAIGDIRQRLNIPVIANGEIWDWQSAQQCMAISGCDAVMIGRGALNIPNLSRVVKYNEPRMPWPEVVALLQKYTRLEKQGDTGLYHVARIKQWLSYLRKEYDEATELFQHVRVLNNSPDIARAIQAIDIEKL

DusA = molecular target: T3, DusA (Escherichia coli, UniProt P32695); experiment: flavin bound to the purified protein; format: binding; details: non-covalent; flavin named FMN elsewhere in the paper
T3 construct: expression construct, tags and host not described
T3 sequence (P32695 1-345): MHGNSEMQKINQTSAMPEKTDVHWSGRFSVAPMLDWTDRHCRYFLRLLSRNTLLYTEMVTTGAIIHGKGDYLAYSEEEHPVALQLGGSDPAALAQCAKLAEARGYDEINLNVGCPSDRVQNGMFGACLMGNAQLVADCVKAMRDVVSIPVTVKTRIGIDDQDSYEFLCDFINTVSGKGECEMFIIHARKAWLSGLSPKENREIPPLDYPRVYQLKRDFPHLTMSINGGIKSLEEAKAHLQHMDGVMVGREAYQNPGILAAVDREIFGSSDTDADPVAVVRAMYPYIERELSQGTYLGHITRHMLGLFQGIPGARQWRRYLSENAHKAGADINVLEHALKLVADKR

[1] = substrate: NC(=O)C1=CN([C@@H]2O[C@H](COP(=O)(O)OP(=O)(O)OC[C@H]3O[C@@H](n4cnc5c(N)ncnc54)[C@H](OP(=O)(O)O)[C@@H]3O)[C@@H](O)[C@H]2O)C=CC1; experiment: NADPH oxidase, spectrophotometric, steady state; format: biochemical, Escherichia coli; details: air (O2) as final electron acceptor, 50 mM HEPES pH 7.5, 150 mM NaCl, 15% glycerol, no tRNA

Molecule: Cc1cc2nc3c(=O)[nH]c(=O)nc-3n(C[C@H](O)[C@H](O)[C@H](O)COP(=O)(O)O)c2cc1C [FMN]
- flavin bound to the purified protein (DusB): exhibited non-covalently bound flavin, associated with the apoproteins
- flavin bound to the purified protein (DusC): exhibited non-covalently bound flavin, associated with the apoproteins
- flavin bound to the purified protein (DusA): exhibited non-covalently bound flavin, associated with the apoproteins

B1: DusA (Escherichia coli K-12) (protein)
chain: T3 sequence (P32695 1-345)
notes: expression construct, tags and host not described
- Km [1]: 17 ± 3 µM
- kcat [1]: 0.48 ± 0.072 s⁻¹
